The values that follow come from article PMC7026885, “Macrofilaricidal Benzimidazole–Benzoxaborole Hybrids as an Approach to the Treatment of River Blindness: Part 1. Amide Linked Analogs” (ACS Infectious Diseases, 2019).

The subject of series [1] is G2/M arrest (functional indicator of interaction with mammalian tubulin). The series can be described thus: mammalian G2/M arrest assay. It counts as cell-based. The conditions noted are these: Table 1; read-out: G2/M arrest IC50. The protocol:
The first three analogs from the benzimidazole 5-carboxylic acid, namely 7a (from 6-aminobenzoxaborole), 8a (from 6-aminomethyl-3,3-dimethylbenzoxaborole), and 8b (from 3-aminomethylbenzoxaborole), were prepared and tested in an Onchocerca volvulus L3 larval molting assay[34],[35] and a mammalian G2/M arrest assay[36] to evaluate antifilarial activity and selectivity, respectively (Table 1). O. volvulus is the causative agent of river blindness, and the L3 molting assay is the only widely available and reproducible assay of this filariid, the target of novel macrofilaricidal drugs.[34],[35] Other animal models (e.g., Brugia in gerbils) recapitulate aspects of lymphatic filariasis and are also used as surrogate screens for O. volvulus infections. Of the three compounds tested, 8a emerged as the most attractive compound on the basis of potency and selectivity.
Similarly, changing the point of attachment on the benzoxaborole core from 6- to 5- to afford 8d was also accompanied by increased potency in both the O. volvulus and G2/M arrest assays.

A short description of series [2]: Plasma drug concentrations in treated infected gerbils. It counts as in vivo. The conditions noted are these: for concentration at 42 day: day 42; for concentration at 28 day: day 28. As to the method: (§1) We characterized the in vitro ADME properties of 8a in preparation for evaluation of this compound in our primary in vivo model in gerbils. […] We were pleased to find that 8a was able to kill 100% of both male and female worms in the gerbil peritoneum when dosed subcutaneously at 100 mg/kg/day for 14 days as a suspension in a nonsolubilizing HEC/Tween vehicle. […] The subsequent assessment of the pharmacokinetics of 8a from these two dosing paradigms provided an interesting observation that we believe to be important in understanding the PK–PD requirements for achieving efficacy in this animal model. […] We had made the same observation in a positive control group using flubendazole at a subcutaneous dose of 10 mg/kg/day for 5 days in the nonsolubilizing HEC/Tween vehicle, namely, that plasma levels of flubendazole were maintained above the in vitro IC50 (4 nM) for over 42 days, consistent with data reported in the literature.[43] […] We next examined 8a in two additional in vivo models, the first where L3 B. pahangi larvae were injected into the peritoneum of gerbils and allowed to develop into adult worms[45] and a second where gerbils were naturally infected by the filarial nematode Litomosoides sigmodontis.[46],[47] In both of these models, 8a was administered subcutaneously at 100 mg/kg for 14 days or orally at 100 mg/kg for 28 days as a suspension. […] Additionally, when plasma obtained from treated animals at necropsy was analyzed for 8a, we observed an outcome similar to that observed in the adult implantation model, e.g., that measurable levels were present at this time point in the subcutaneous-dosed groups but not in the orally dosed groups, weeks after administration of the drug. In a final L. sigmodontis experiment with 8a, we dosed the compound subcutaneously at 300 mg/kg for 7 days as a suspension.

The nature of series [3]: Metabolic stability in gerbil microsomes. It counts as in vitro ADME. The protocol: We characterized the in vitro ADME properties of 8a in preparation for evaluation of this compound in our primary in vivo model in gerbils. […] We were pleased to find that 8a was able to kill 100% of both male and female worms in the gerbil peritoneum when dosed subcutaneously at 100 mg/kg/day for 14 days as a suspension in a nonsolubilizing HEC/Tween vehicle. […] The subsequent assessment of the pharmacokinetics of 8a from these two dosing paradigms provided an interesting observation that we believe to be important in understanding the PK–PD requirements for achieving efficacy in this animal model. […] We had made the same observation in a positive control group using flubendazole at a subcutaneous dose of 10 mg/kg/day for 5 days in the nonsolubilizing HEC/Tween vehicle, namely, that plasma levels of flubendazole were maintained above the in vitro IC50 (4 nM) for over 42 days, consistent with data reported in the literature.[43] […] Additionally, when plasma obtained from treated animals at necropsy was analyzed for 8a, we observed an outcome similar to that observed in the adult implantation model, e.g., that measurable levels were present at this time point in the subcutaneous-dosed groups but not in the orally dosed groups, weeks after administration of the drug. […]

Series [4] has as its system MDR1-MDCK monolayer. The series can be described thus: MDR1-MDCK monolayer permeability assay. It counts as in vitro ADME. The conditions noted are these: dog. As to the method:
as §1

In series [5] the test system is micronucleus. Also noted: method as in PMID 26443851. The conditions noted are these: in vitro; cited from earlier work.
Series [6] has as its system micronucleus. Also noted: method as in PMID 26443851. To be noted: in vivo; cited from earlier work.
The test system of series [7] is rat whole embryo culture. Also noted: method as in PMID 23287076, PMID 24994687. The conditions noted are these: cited from earlier work.
Series [8] concerns pregnant female rats. Also on record: method as in PMID 23287076, PMID 24994687. The conditions noted are these: dosed to pregnant female rats; cited from earlier work.

Where two headings read alike, the source gives them in different places.

What is called microsomal CLint is the capacity of the preparation to metabolise the compound, expressed as a volume cleared per time. The low end stands for slow turnover, the high end for rapid turnover. `COC(=O)Nc1nc2cc(C(=O)NCc3ccc4c(c3)B(O)OC4(C)C)ccc2[nH]1` [8a]: in series [1], the IC50 was found to be 13 µM. For the same molecule, the “drug concentration at necropsy” value in series [2] (B. malayi model, necropsy day 42, 100 mg/kg × 28 days, QD, PO (suspension)) was “<LOQ”; in series [2] (B. pahangi model, necropsy day 63, 100 mg/kg × 28 days, QD, PO (suspension)) it was “<LOQ”. The concentration at 24 h after last dose in series [2] (gerbil, plasma, po, 100 mg/kg, B. malayi model, 100 mg/kg × 28 days, QD, PO (suspension), read-out: drug concentration 24 h after last dose) worked out at 128 nM; in series [2] (gerbil, plasma, po, 100 mg/kg, B. pahangi model, 100 mg/kg × 28 days, QD, PO (suspension), read-out: drug concentration 24 h after last dose), 130 nM; in series [2] (gerbil, plasma, po, 100 mg/kg, L. sigmodontis model, 100 mg/kg × 28 days, QD, PO (suspension), read-out: drug concentration 24 h after last dose), 210 nM; in series [2] (gerbil, plasma, sc, 100 mg/kg, B. malayi model, 100 mg/kg × 14 days, QD, SC (suspension), read-out: drug concentration 24 h after last dose), 4100 nM; in series [2] (gerbil, plasma, sc, 100 mg/kg, B. pahangi model, 100 mg/kg × 14 days, QD, SC (suspension), read-out: drug concentration 24 h after last dose) it was 5870 nM; in series [2] (gerbil, plasma, sc, 100 mg/kg, L. sigmodontis model, 100 mg/kg × 14 days, QD, SC (suspension), read-out: drug concentration 24 h after last dose), 9300 nM. Besides, the concentration at 24 h after last dose was 2470 nM in series [2] (gerbil, plasma, sc, 150 mg/kg, B. malayi model, 150 mg/kg × 14 days, QD, SC (solution), read-out: drug concentration 24 h after last dose) and 7850 nM in series [2] (gerbil, plasma, sc, 300 mg/kg, L. sigmodontis model, 300 mg/kg × 7 days, QD, SC (suspension), read-out: drug concentration 24 h after last dose). The concentration at 42 day in series [2] (gerbil, plasma, po, 100 mg/kg, L. sigmodontis model, 100 mg/kg × 28 days, QD, PO (suspension), read-out: drug concentration interim) worked out at 6 nM; in series [2] (gerbil, plasma, sc, 300 mg/kg, L. sigmodontis model, 300 mg/kg × 7 days, QD, SC (suspension), read-out: drug concentration interim), 4640 nM. Further, the concentration at 63 day (necropsy) in series [2] (gerbil, plasma, po, 100 mg/kg, L. sigmodontis model, necropsy day 63, 100 mg/kg × 28 days, QD, PO (suspension)) is 3 nM; in series [2] (gerbil, plasma, sc, 100 mg/kg, B. pahangi model, necropsy day 63, 100 mg/kg × 14 days, QD, SC (suspension)), 1150 nM; in series [2] (gerbil, plasma, sc, 100 mg/kg, L. sigmodontis model, necropsy day 63, 100 mg/kg × 14 days, QD, SC (suspension)) it was 69 nM; in series [2] (gerbil, plasma, sc, 300 mg/kg, L. sigmodontis model, necropsy day 63, 300 mg/kg × 7 days, QD, SC (suspension)), 480 nM. In addition, the concentration at 28 day in series [2] (gerbil, plasma, sc, 100 mg/kg, B. malayi model, 100 mg/kg × 14 days, QD, SC (suspension), read-out: drug concentration interim) was 5360 nM; in series [2] (gerbil, plasma, sc, 150 mg/kg, B. malayi model, 150 mg/kg × 14 days, QD, SC (solution), read-out: drug concentration interim) it was 70 nM. Moreover, the concentration at 42 day (necropsy) is 3380 nM in series [2] (gerbil, plasma, sc, 100 mg/kg, B. malayi model, necropsy day 42, 100 mg/kg × 14 days, QD, SC (suspension), read-out: drug concentration at necropsy) and 10 nM in series [2] (gerbil, plasma, sc, 150 mg/kg, B. malayi model, necropsy day 42, 150 mg/kg × 14 days, QD, SC (solution), read-out: drug concentration at necropsy). For the same molecule, the concentration at 21 day in series [2] (gerbil, plasma, sc, 300 mg/kg, L. sigmodontis model, day 21, 300 mg/kg × 7 days, QD, SC (suspension), read-out: drug concentration interim) turned out to be 10600 nM. Further, the microsomal CLint in series [3] was under 4 µL/min/mg. Moreover, the “Papp with Pgp efflux inhibitor GF-120918” value in series [4] is 2.7 × 10^–6 cm/s.
Regarding `COC(=O)Nc1nc2cc(C(=O)c3ccc(F)cc3)ccc2[nH]1` [compound 1, Flubendazole, reference compound], the micronucleus test result in series [5] and in series [6] was “aneugen” each time. For the same molecule, the embryotoxicity entry in series [7] and in series [8] was “potentially embryotoxic” each time. In addition, in series [1], the IC50 was 0.67 µM. In series [2] (gerbil, in vivo, sc, 10 mg/kg, drug concentration 24 h after last dose), this molecule gave a concentration at 24 h after last dose of 178 nM. The molecule further showed a concentration at 42 day (necropsy) in series [2] (gerbil, in vivo, sc, 10 mg/kg, drug concentration at necropsy) of 43 nM. Moreover, the “time plasma levels maintained above in vitro IC50 (4 nM)” value in series [2] (gerbil, in vivo, sc, 10 mg/kg/day) is recorded as “over 42 days”.
